Among the test systems are BT-549; CCRF-CEM; EKVX; HOP-62; HOP-92; HT-29; Hs-578T; LOX IMVI; M14; NCI-H226; NCI-H522; OVCAR-3; OVCAR-5; RPMI-8226; SF-268; SK-OV-3; SN12C; SW-620; UACC-257; UACC-62.
What all share (experiment): growth of human tumour cells (NCI), 48 h

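How tested: cells in 96-well plates exposed to compound for 48 hours at five concentrations. At the GI50, growth is halved.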 The source made the active and inactive calls. No stated cut-off is given here; in the data, active = GI50 up to about 1.1 µM and inactive = higher. A value given as a limit tells only on which side of the number the result lay.

For `CC(C)(C)C1CCC2c3c([nH]c4ccccc34)C3C(=O)N(c4ccc(C(=O)O)cc4)C(=O)C3C2C1` (stereo not given), the GI50 is 14.5 µM (inactive) with BT-549; 3.69 µM (inactive) in the test with CCRF-CEM; 22 µM (inactive) with EKVX; 0.1 µM (active) with HOP-62; 11.2 µM (inactive) in the test with HOP-92; 12.9 µM (inactive) with HT-29. The GI50 is 17.6 µM (inactive) in the test on Hs-578T; 14.5 µM (inactive) in the test with LOX IMVI; 16.8 µM (inactive) in the test with M14; 20.9 µM (inactive) in the test on NCI-H226; 18.9 µM (inactive) with NCI-H522; 12.4 µM (inactive) in the test on OVCAR-3. The GI50 in the test on OVCAR-5 is 21.9 µM (inactive); in the test with RPMI-8226 it was 20 µM (inactive); in the test with SF-268, 14.2 µM (inactive); in the test on SK-OV-3, 17.5 µM (inactive); in the test with SN12C, 12.8 µM (inactive); in the test on SW-620 it was 13.6 µM (inactive). For the same compound, the GI50 with UACC-257 is 13.9 µM (inactive); in the test on UACC-62 it was 14.2 µM (inactive).

With `COC(=O)c1ccc2cc(O)c(O)cc2c1`, the GI50 with BT-549 is 21.2 µM (inactive); with CCRF-CEM, 18.9 µM (inactive); with EKVX, 20.5 µM (inactive); in the test with HOP-62, 56 µM (inactive); in the test on HOP-92 it was 32.5 µM (inactive); in the test on HT-29 it was 37.4 µM (inactive). Further, the GI50 in the test on Hs-578T was 22.8 µM (inactive); in the test on LOX IMVI, 36.1 µM (inactive); in the test with M14, 26.3 µM (inactive); in the test on NCI-H226, 38.9 µM (inactive); with NCI-H522, 16.1 µM (inactive); in the test with OVCAR-3, 31.1 µM (inactive). Moreover, the GI50 in the test on OVCAR-5 was > 88.9 µM (inactive); in the test on RPMI-8226, 29.4 µM (inactive); in the test on SF-268, 16.6 µM (inactive); in the test on SK-OV-3, 70.8 µM (inactive); in the test with SN12C it was 55.2 µM (inactive); in the test on SW-620, 51.4 µM (inactive). Further, the GI50 in the test with UACC-257 was 29.8 µM (inactive); in the test with UACC-62 it was 26.2 µM (inactive).

For `CC1(O)CC(=O)c2c(cc3ccc(-c4c5c(c(O)c6c(O)cccc46)C(=O)CC(C)(O)C5)c(O)c3c2O)C1` (stereo not given), the GI50 was 0.347 µM (active) with BT-549; 0.38 µM (active) with CCRF-CEM; 0.562 µM (active) in the test on EKVX; 0.296 µM (active) with HOP-62; 0.242 µM (active) in the test on HOP-92; 0.409 µM (active) with HT-29. Moreover, the GI50 in the test on Hs-578T is 0.265 µM (active); with LOX IMVI, 0.817 µM (active); in the test on M14 it was 0.406 µM (active); with NCI-H226, 0.448 µM (active); with NCI-H522, 0.213 µM (active); with OVCAR-3 it was 0.0953 µM (active). Further, the GI50 in the test with OVCAR-5 was 0.611 µM (active); in the test on RPMI-8226 it was 0.0509 µM (active); in the test on SF-268, 0.194 µM (active); in the test with SK-OV-3, 2.01 µM (inactive); in the test with SN12C, 1.39 µM (inactive); in the test on SW-620, 0.468 µM (active). Moreover, the GI50 in the test on UACC-257 was 0.324 µM (active); with UACC-62, 1.46 µM (inactive).

For the compound `Cc1cc(C)c2c(=O)cc(-c3ccccc3)[nH]c2c1`, the GI50 with BT-549 was 7.45 µM (inactive); in the test on CCRF-CEM it was 1.49 µM (inactive); in the test on EKVX it was 4.47 µM (inactive); in the test on HOP-62 it was 5.14 µM (inactive); in the test on HOP-92, 19.1 µM (inactive); with HT-29 it was 1.17 µM (inactive). In addition, the GI50 in the test with Hs-578T is 4.59 µM (inactive); in the test with LOX IMVI it was 2.69 µM (inactive); in the test on M14, 3.37 µM (inactive); in the test with NCI-H226 it was 9.66 µM (inactive); with NCI-H522, 0.755 µM (active); in the test with OVCAR-3, 3.47 µM (inactive). Besides, the GI50 in the test on OVCAR-5 was 10.4 µM (inactive); in the test on RPMI-8226, 2.02 µM (inactive); in the test with SF-268 it was 7.82 µM (inactive); in the test on SK-OV-3, 2.52 µM (inactive); in the test with SN12C it was 5.25 µM (inactive); with SW-620, 0.738 µM (active). In addition, the GI50 with UACC-257 was 21.7 µM (inactive); with UACC-62, 1.6 µM (inactive).

For the compound `CCCC(CCC)C(=O)O` [VALPROIC ACID], the GI50 with BT-549 is 12200 µM (inactive); in the test on CCRF-CEM, 14800 µM (inactive); with EKVX, > 100 µM (inactive); in the test on HOP-62 it was > 100 µM (inactive); with HOP-92, 9380 µM (inactive); in the test on HT-29, 3010 µM (inactive). Further, the GI50 in the test on Hs-578T is 12100 µM (inactive); in the test with LOX IMVI, 6280 µM (inactive); in the test with M14, > 100 µM (inactive); with NCI-H226, > 100 µM (inactive); with NCI-H522, 3240 µM (inactive); in the test with OVCAR-3, 12900 µM (inactive). The GI50 with OVCAR-5 is > 100 µM (inactive); with RPMI-8226, 4070 µM (inactive); with SF-268 it was 2140 µM (inactive); with SK-OV-3, > 100 µM (inactive); in the test on SN12C, > 100 µM (inactive); in the test with SW-620, 8530 µM (inactive). Moreover, the GI50 in the test on UACC-257 was 4530 µM (inactive); with UACC-62 it was 8810 µM (inactive).

In the case of `O=S(=O)(O)c1ccc(/N=N/c2c(O)ccc3ccccc23)cc1`, the GI50 in the test with BT-549 was > 100 µM (inactive); in the test on CCRF-CEM, > 100 µM (inactive); in the test on EKVX, > 100 µM (inactive); in the test on HOP-62, > 100 µM (inactive); in the test with HOP-92, > 69.8 µM (inactive); in the test on HT-29, > 100 µM (inactive). Further, the GI50 with Hs-578T was > 100 µM (inactive); in the test on LOX IMVI, > 100 µM (inactive); in the test with M14, > 100 µM (inactive); in the test on NCI-H226, 98.2 µM (inactive); with NCI-H522 it was > 100 µM (inactive); with OVCAR-3, > 100 µM (inactive). Further, the GI50 in the test with OVCAR-5, with RPMI-8226, with SF-268, in the test with SK-OV-3, with SN12C and in the test on SW-620 was > 100 µM (inactive) throughout. For the same compound, the GI50 with UACC-257 and with UACC-62 was > 100 µM (inactive) throughout.

On to `O=C1c2cc([N+](=O)[O-])cc3cc([N+](=O)[O-])cc(c23)C(=O)N1CCCNCCNCCCN1C(=O)c2cc([N+](=O)[O-])cc3cc([N+](=O)[O-])cc(c23)C1=O`, for which the GI50 with BT-549 is 1.7 µM (inactive); in the test on CCRF-CEM, < 0.015 µM (active); in the test on EKVX, 1.05 µM (active); with HOP-62, 0.185 µM (active); in the test with HOP-92 it was 0.337 µM (active); with HT-29, 0.0201 µM (active). For the same compound, the GI50 in the test with Hs-578T is 0.106 µM (active); in the test on LOX IMVI, 0.0142 µM (active); in the test with M14 it was 0.384 µM (active); in the test with NCI-H226, 0.0641 µM (active); in the test on NCI-H522 it was 0.0551 µM (active); in the test with OVCAR-3, 0.0897 µM (active). For the same compound, the GI50 is 0.268 µM (active) in the test on OVCAR-5; < 0.0114 µM (active) with RPMI-8226; 0.0222 µM (active) with SF-268; 1.79 µM (inactive) in the test on SK-OV-3; 0.0366 µM (active) in the test on SN12C; 0.073 µM (active) in the test on SW-620. Also, the GI50 in the test with UACC-257 is 0.49 µM (active); with UACC-62, 0.302 µM (active).

Take `CC[C@@]1(O)C(=O)OCc2c1cc1n(c2=O)Cc2c-1nc1ccccc1c2/C=N\NC(=O)C(N)CC(C)C` (stereo not given in full): the GI50 was 0.0382 µM (active) in the test on BT-549; < 0.01 µM (active) in the test on CCRF-CEM; 0.438 µM (active) with EKVX; < 0.01 µM (active) in the test on HOP-62; 0.0815 µM (active) in the test with HOP-92; 0.228 µM (active) in the test on HT-29. The GI50 is 11.3 µM (inactive) in the test on Hs-578T; < 0.01 µM (active) in the test with LOX IMVI; < 0.0128 µM (active) with M14; 0.0277 µM (active) in the test with NCI-H226; < 0.0175 µM (active) in the test with NCI-H522; 0.297 µM (active) in the test with OVCAR-3. For the same compound, the GI50 was 0.726 µM (active) with OVCAR-5; 0.024 µM (active) with RPMI-8226; < 0.01 µM (active) with SF-268; < 0.0212 µM (active) in the test with SK-OV-3; < 0.01 µM (active) in the test with SN12C; 0.0887 µM (active) in the test on SW-620. In addition, the GI50 in the test on UACC-257 was 0.0536 µM (active); in the test with UACC-62, < 0.01 µM (active).

On to `Cc1ccc(C(=N)Nc2ccccc2)cc1`, for which the GI50 in the test on BT-549 is > 100 µM (inactive); in the test with CCRF-CEM, 52.2 µM (inactive); in the test on EKVX it was > 100 µM (inactive); in the test with HOP-62, > 100 µM (inactive); with HOP-92, > 100 µM (inactive); with HT-29 it was 69.7 µM (inactive). Moreover, the GI50 in the test on Hs-578T, with LOX IMVI, in the test on M14, in the test on NCI-H226, in the test with NCI-H522 and in the test on OVCAR-3 was > 100 µM (inactive) throughout. For the same compound, the GI50 in the test with OVCAR-5, in the test with RPMI-8226, in the test on SF-268, in the test with SK-OV-3, in the test with SN12C and with SW-620 was > 100 µM (inactive) throughout. Further, the results for the GI50 with UACC-257 and with UACC-62 were 38 µM (inactive) and > 100 µM (inactive), respectively.

The record behind these values is ChEMBL document CHEMBL1201862, “PubChem BioAssay data set” (2004).
